Results: ChEMBL document CHEMBL2375211, “2-methoxyjuglone induces apoptosis in HepG2 human hepatocellular carcinoma cells and exhibits in vivo antitumor activity in a H22 mouse hepatocellular carcinoma model” (J Nat Prod, 2013)
≈ marks a conversion by molar mass, not a printed value. Calls of active or inactive are those of the source. No cut-off for these calls is given here.

What was measured:
[1] = tested on: HepG2; assay: Cell cycle arrest in human HepG2 cells assessed as accumulation at sub-G1 phase at 1.6 ug/mL after 48 hrs by propidium iodide staining-based flow cytometric analysis (reference value: 3%); format: functional
[2] = tested on: HepG2; assay: Cell cycle arrest in human HepG2 cells assessed as accumulation at G2/M phase at 8 ug/mL after 24 hrs by propidium iodide staining-based flow cytometric analysis (reference value: 9%); format: functional
[3] = tested on: HepG2; assay: Cell cycle arrest in human HepG2 cells assessed as accumulation at S phase at 8 ug/mL after 24 hrs by propidium iodide staining-based flow cytometric analysis (reference value: 46%); format: functional
[4] = tested on: HepG2; assay: Cell cycle arrest in human HepG2 cells assessed as accumulation at G1 phase at 8 ug/mL after 24 hrs by propidium iodide staining-based flow cytometric analysis (reference value: 45%); format: functional
[5] = tested on: HepG2; assay: Cell cycle arrest in human HepG2 cells assessed as accumulation at sub-G1 phase at 8 ug/mL after 24 hrs by propidium iodide staining-based flow cytometric analysis (reference value: 4%); format: functional
[6] = tested on: HepG2; assay: Cell cycle arrest in human HepG2 cells assessed as accumulation at G2/M phase at 6.4 ug/mL after 24 hrs by propidium iodide staining-based flow cytometric analysis (reference value: 9%); format: functional
[7] = tested on: HepG2; assay: Cell cycle arrest in human HepG2 cells assessed as accumulation at S phase at 6.4 ug/mL after 24 hrs by propidium iodide staining-based flow cytometric analysis (reference value: 46%); format: functional
[8] = tested on: HepG2; assay: Cell cycle arrest in human HepG2 cells assessed as accumulation at G1 phase at 6.4 ug/mL after 24 hrs by propidium iodide staining-based flow cytometric analysis (reference value: 45%); format: functional
[9] = tested on: HepG2; assay: Cell cycle arrest in human HepG2 cells assessed as accumulation at sub-G1 phase at 6.4 ug/mL after 24 hrs by propidium iodide staining-based flow cytometric analysis (reference value: 4%); format: functional
[10] = tested on: HepG2; assay: Cell cycle arrest in human HepG2 cells assessed as accumulation at G2/M phase at 4.8 ug/mL after 24 hrs by propidium iodide staining-based flow cytometric analysis (reference value: 9%); format: functional
[11] = tested on: HepG2; assay: Cell cycle arrest in human HepG2 cells assessed as accumulation at S phase at 4.8 ug/mL after 24 hrs by propidium iodide staining-based flow cytometric analysis (reference value: 46%); format: functional
[12] = tested on: HepG2; assay: Cell cycle arrest in human HepG2 cells assessed as accumulation at G1 phase at 4.8 ug/mL after 24 hrs by propidium iodide staining-based flow cytometric analysis (reference value: 45%); format: functional
[13] = tested on: HepG2; assay: Cell cycle arrest in human HepG2 cells assessed as accumulation at sub-G1 phase at 4.8 ug/mL after 24 hrs by propidium iodide staining-based flow cytometric analysis (reference value: 4%); format: functional
[14] = tested on: HepG2; assay: Cell cycle arrest in human HepG2 cells assessed as accumulation at G2/M phase at 3.2 ug/mL after 24 hrs by propidium iodide staining-based flow cytometric analysis (reference value: 9%); format: functional
[15] = tested on: HepG2; assay: Cell cycle arrest in human HepG2 cells assessed as accumulation at S phase at 3.2 ug/mL after 24 hrs by propidium iodide staining-based flow cytometric analysis (reference value: 46%); format: functional
[16] = tested on: HepG2; assay: Cell cycle arrest in human HepG2 cells assessed as accumulation at G1 phase at 3.2 ug/mL after 24 hrs by propidium iodide staining-based flow cytometric analysis (reference value: 45%); format: functional
[17] = tested on: HepG2; assay: Cell cycle arrest in human HepG2 cells assessed as accumulation at sub-G1 phase at 3.2 ug/mL after 24 hrs by propidium iodide staining-based flow cytometric analysis (reference value: 4%); format: functional
[18] = tested on: HepG2; assay: Cell cycle arrest in human HepG2 cells assessed as accumulation at G2/M phase at 1.6 ug/mL after 24 hrs by propidium iodide staining-based flow cytometric analysis (reference value: 9%); format: functional
[19] = tested on: HepG2; assay: Cell cycle arrest in human HepG2 cells assessed as accumulation at S phase at 1.6 ug/mL after 24 hrs by propidium iodide staining-based flow cytometric analysis (reference value: 46%); format: functional
[20] = tested on: HepG2; assay: Cell cycle arrest in human HepG2 cells assessed as accumulation at G1 phase at 1.6 ug/mL after 24 hrs by propidium iodide staining-based flow cytometric analysis (reference value: 45%); format: functional
[21] = tested on: HepG2; assay: Cell cycle arrest in human HepG2 cells assessed as accumulation at sub-G1 phase at 1.6 ug/mL after 24 hrs by propidium iodide staining-based flow cytometric analysis (reference value: 4%); format: functional
[22] = tested on: HepG2; assay: Induction of apoptosis in human HepG2 cells assessed as apoptotic body formation at 8 ug/mL after 24 hrs by acridine orange/ethidium bromide staining-based fluorescence microscopic analysis; format: functional, cell-based
[23] = tested on: HepG2; assay: Induction of apoptosis in human HepG2 cells assessed as nuclear condensation at 4.8 ug/mL after 24 hrs by acridine orange/ethidium bromide staining-based fluorescence microscopic analysis; format: functional, cell-based
[24] = tested on: HepG2; assay: Induction of apoptosis in human HepG2 cells assessed as membrane damage at 4.8 to 8 ug/mL after 24 hrs by acridine orange/ethidium bromide staining-based fluorescence microscopic analysis; format: functional, cell-based
[25] = tested on: HepG2; assay: Induction of apoptosis in human HepG2 cells assessed as appearance of membrane blebbing at 4.8 to 8 ug/mL after 24 hrs by inverted microscopic analysis relative to control; format: functional, cell-based
[26] = tested on: HepG2; assay: Induction of apoptosis in human HepG2 cells assessed as appearance of cell shrinkage at 4.8 to 8 ug/mL after 24 hrs by inverted microscopic analysis relative to control; format: functional, cell-based
[27] = tested on: HepG2; assay: Cytotoxicity against human HepG2 cells assessed as cell viability after 72 hrs by MTT assay; format: functional, cell-based; conditions: HepG2, 72 h
[28] = tested on: HepG2; assay: Cytotoxicity against human HepG2 cells assessed as cell viability after 48 hrs by MTT assay; format: functional, cell-based; conditions: HepG2, 48 h
[29] = tested on: HepG2; assay: Cytotoxicity against human HepG2 cells assessed as cell viability after 24 hrs by MTT assay; format: functional, cell-based; conditions: HepG2, 24 h
[30] = tested on: HepG2; assay: Cytotoxicity against human HepG2 cells assessed as decrease in cell viability at 1.6 to 8 ug/mL by MTT assay; format: functional, cell-based; conditions: TDE = time-dependent effect
[31] = tested on: HepG2; assay: Cytotoxicity against human HepG2 cells assessed as decrease in cell viability after 24 to 72 hrs by MTT assay; format: functional, cell-based

## COC1=CC(=O)c2c(O)cccc2C1=O
[1]
  Activity: 6%
[2]
  Activity: 0%
[3]
  Activity: 59%
[4]
  Activity: 41%
[5]
  Activity: 7%
[6]
  Activity: 2%
[7]
  Activity: 61%
[8]
  Activity: 37%
[9]
  Activity: 6%
[10]
  Activity: 0%
[11]
  Activity: 62%
[12]
  Activity: 38%
[13]
  Activity: 7%
[14]
  Activity: 2%
[15]
  Activity: 64%
[16]
  Activity: 34%
[17]
  Activity: 2%
[18]
  Activity: 1%
[19]
  Activity: 62%
[20]
  Activity: 37%
[21]
  Activity: 5%
[22]
  Activity: Active
[23]
  Activity: Active
[24]
  Activity: Active
[25]
  Activity: Active
[26]
  Activity: Active
[27]
  IC50: 2.7 µg/mL (≈ 13.2 µM)
[28]
  IC50: 3.7 µg/mL (≈ 18.1 µM)
[29]
  IC50: 3.8 µg/mL (≈ 18.6 µM)
[30]
  Activity: tde
[31]
  Activity: Dose-dependent effect
